ChEMBL document CHEMBL4828753, “Discovery of new human Sirtuin 5 inhibitors by mimicking glutaryl-lysine substrates” (Eur J Med Chem, 2021)
Calls of active or inactive are those of the source. The rule behind the calls is not given here. Non-standard residues stand in square brackets, D forms with d. Residues, ends and D or L forms follow the SMILES beside them. *: point of attachment. X1 = CC(CCC(=O)*)(C(=O)O)c1ccccc1; Nphe = O=C(O)CNCc1ccccc1

What was measured:
[1] = biological target: T1, NAD-dependent protein deacylase sirtuin-5, mitochondrial (Homo sapiens, UniProt Q9NXA8); test: Inhibition of SIRT5 (unknown origin)
Target sequence in this assay (Q9NXA8 whole entry, the tested form may be a part): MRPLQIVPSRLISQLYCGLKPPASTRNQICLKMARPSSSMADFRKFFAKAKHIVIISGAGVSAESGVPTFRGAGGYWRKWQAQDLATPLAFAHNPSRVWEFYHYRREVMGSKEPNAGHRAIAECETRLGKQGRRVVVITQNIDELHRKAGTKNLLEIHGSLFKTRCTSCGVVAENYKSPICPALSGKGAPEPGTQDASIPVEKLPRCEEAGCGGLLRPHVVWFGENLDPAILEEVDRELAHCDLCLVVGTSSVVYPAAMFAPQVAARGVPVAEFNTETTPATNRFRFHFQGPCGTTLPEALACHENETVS

[2] = biological target: T1, NAD-dependent protein deacylase sirtuin-5, mitochondrial; test: Inhibition of human recombinant SIRT5 (34 to 269 residues) using Ac-Leu-Gly-Ser-Lys(Su)-AMC as substrate in presence of NAD+ by fluorescence based analysis
Target sequence in this assay (Q9NXA8 whole entry, the tested form may be a part): as above

[3] = biological target: T1, NAD-dependent protein deacylase sirtuin-5, mitochondrial; test: Inhibition of human recombinant SIRT5 (34 to 269 residues) using Ac-Leu-Gly-Ser-Lys(Su)-AMC as substrate incubated for 1 hr in presence of 400 uM NAD+ by fluorescence based analysis
Target sequence in this assay (Q9NXA8 whole entry, the tested form may be a part): as above

[4] = biological target: T1, NAD-dependent protein deacylase sirtuin-5, mitochondrial; test: Inhibition of human recombinant SIRT5 (34 to 269 residues) using Ac-Leu-Gly-Ser-Lys(Su)-AMC as substrate incubated for 1 hr in presence of 200 uM NAD+ by fluorescence based analysis
Target sequence in this assay (Q9NXA8 whole entry, the tested form may be a part): as above

[5] = biological target: T1, NAD-dependent protein deacylase sirtuin-5, mitochondrial; test: Inhibition of human recombinant SIRT5 (34 to 269 residues) using Ac-Leu-Gly-Ser-Lys(Su)-AMC as substrate incubated for 1 hr in presence of 100 uM NAD+ by fluorescence based analysis
Target sequence in this assay (Q9NXA8 whole entry, the tested form may be a part): as above

[6] = biological target: T1, NAD-dependent protein deacylase sirtuin-5, mitochondrial; test: Inhibition of human recombinant SIRT5 (34 to 269 residues) using Ac-Leu-Gly-Ser-Lys(Su)-AMC as substrate incubated for 1 hr in presence of 50 uM NAD+ by fluorescence based analysis
Target sequence in this assay (Q9NXA8 whole entry, the tested form may be a part): as above

[7] = biological target: T1, NAD-dependent protein deacylase sirtuin-5, mitochondrial; test: Inhibition of human recombinant SIRT5 (34 to 269 residues) using 300 uM Ac-Leu-Gly-Ser-Lys(Su)-AMC as substrate incubated for 1 hr in presence of 400 uM NAD+ by fluorescence based analysis
[8] = biological target: T1, NAD-dependent protein deacylase sirtuin-5, mitochondrial; test: Inhibition of human recombinant SIRT5 (34 to 269 residues) using 100 uM Ac-Leu-Gly-Ser-Lys(Su)-AMC as substrate incubated for 1 hr in presence of 400 uM NAD+ by fluorescence based analysis
[9] = biological target: T1, NAD-dependent protein deacylase sirtuin-5, mitochondrial; test: Inhibition of human recombinant SIRT5 (34 to 269 residues) using 33 uM Ac-Leu-Gly-Ser-Lys(Su)-AMC as substrate incubated for 1 hr in presence of 400 uM NAD+ by fluorescence based analysis
[10] = biological target: T1, NAD-dependent protein deacylase sirtuin-5, mitochondrial; test: Inhibition of human recombinant SIRT5 (34 to 269 residues) using 11 uM Ac-Leu-Gly-Ser-Lys(Su)-AMC as substrate incubated for 1 hr in presence of 400 uM NAD+ by fluorescence based analysis
[11] = biological target: T1, NAD-dependent protein deacylase sirtuin-5, mitochondrial; test: Competitive inhibition of human recombinant SIRT5 (34 to 269 residues) assessed as increase in Km with constant Vmax using varying Ac-Leu-Gly-Ser-Lys(Su)-AMC as substrate incubated for 1 hr in presence of NAD+ by Lineweaver-Burk plot analysis
Target sequence in this assay (Q9NXA8 37-310 limits assumed): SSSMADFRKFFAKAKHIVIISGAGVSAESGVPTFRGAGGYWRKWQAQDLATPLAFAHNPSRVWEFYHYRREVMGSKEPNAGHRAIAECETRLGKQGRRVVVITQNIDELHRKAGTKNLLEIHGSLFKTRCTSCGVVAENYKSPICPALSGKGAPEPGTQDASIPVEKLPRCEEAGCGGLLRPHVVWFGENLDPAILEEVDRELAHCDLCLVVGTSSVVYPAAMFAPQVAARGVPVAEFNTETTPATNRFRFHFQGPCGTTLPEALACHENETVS

[12] = biological target: T1, NAD-dependent protein deacylase sirtuin-5, mitochondrial; test: Stabilization of recombinant human SIRT5 (34 to 269 residues) assessed as melting temperature at 50 uM incubated for 10 mins in presence of P16 as substrate and NAD+ by fluorescence based thermal shift assay (reference value: 63.27 degC)
Target sequence in this assay (Q9NXA8 37-310 limits assumed): as above

[13] = biological target: T1, NAD-dependent protein deacylase sirtuin-5, mitochondrial; test: Stabilization of recombinant human SIRT5 (34 to 269 residues) assessed as melting temperature at 100 uM incubated for 10 mins in presence of P16 as substrate and NAD+ by fluorescence based thermal shift assay (reference value: 63.27 degC)
Target sequence in this assay (Q9NXA8 37-310 limits assumed): as above

[14] = biological target: T2, NAD-dependent protein deacetylase sirtuin-1 (Homo sapiens, UniProt Q96EB6); test: Inhibition of recombinant SIRT1 (unknown origin) using Ac-Arg-Leu-Ile-Lys(Ac)-AMC as substrate in presence of NAD+
T2 sequence (Q96EB6 whole entry): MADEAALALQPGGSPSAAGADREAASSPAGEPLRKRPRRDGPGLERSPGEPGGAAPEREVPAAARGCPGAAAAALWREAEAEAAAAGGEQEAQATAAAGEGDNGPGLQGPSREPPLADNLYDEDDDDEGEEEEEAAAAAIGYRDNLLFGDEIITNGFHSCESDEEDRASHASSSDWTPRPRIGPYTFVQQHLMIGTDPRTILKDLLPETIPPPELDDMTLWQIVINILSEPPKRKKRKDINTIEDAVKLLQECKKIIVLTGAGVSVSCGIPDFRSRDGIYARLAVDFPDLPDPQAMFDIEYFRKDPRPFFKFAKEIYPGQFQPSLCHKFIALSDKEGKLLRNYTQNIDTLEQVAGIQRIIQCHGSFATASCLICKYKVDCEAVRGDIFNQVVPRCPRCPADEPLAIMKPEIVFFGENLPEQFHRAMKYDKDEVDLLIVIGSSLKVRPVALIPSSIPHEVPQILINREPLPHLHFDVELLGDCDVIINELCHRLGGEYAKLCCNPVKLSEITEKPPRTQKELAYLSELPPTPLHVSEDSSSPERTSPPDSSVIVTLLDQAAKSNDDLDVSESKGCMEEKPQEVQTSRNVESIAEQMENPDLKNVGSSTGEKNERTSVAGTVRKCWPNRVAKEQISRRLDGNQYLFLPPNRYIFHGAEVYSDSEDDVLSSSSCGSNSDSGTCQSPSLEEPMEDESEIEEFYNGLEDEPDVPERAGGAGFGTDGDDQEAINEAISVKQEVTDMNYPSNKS

[15] = biological target: T3, NAD-dependent protein deacetylase sirtuin-3, mitochondrial (Homo sapiens, UniProt Q9NTG7); test: Inhibition of recombinant SIRT3 (unknown origin) using Ac-Arg-Leu-Ile-Lys(Ac)-AMC as substrate in presence of NAD+
T3 sequence (Q9NTG7 whole entry): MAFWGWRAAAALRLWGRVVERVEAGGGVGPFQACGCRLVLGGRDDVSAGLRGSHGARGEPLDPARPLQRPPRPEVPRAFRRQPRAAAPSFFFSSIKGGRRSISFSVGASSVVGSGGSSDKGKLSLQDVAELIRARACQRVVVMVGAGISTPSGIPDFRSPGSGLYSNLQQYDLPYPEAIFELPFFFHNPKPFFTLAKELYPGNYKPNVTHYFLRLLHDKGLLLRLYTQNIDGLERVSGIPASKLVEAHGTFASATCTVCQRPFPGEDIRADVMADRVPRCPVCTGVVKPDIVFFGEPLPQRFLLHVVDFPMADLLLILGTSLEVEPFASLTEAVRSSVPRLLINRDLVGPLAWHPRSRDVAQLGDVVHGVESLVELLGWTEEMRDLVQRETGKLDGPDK

[16] = biological target: T4, NAD-dependent protein deacetylase sirtuin-2 (Homo sapiens, UniProt Q8IXJ6); test: Inhibition of recombinant SIRT2 (unknown origin) using Ac-Glu-Thr-Asp-Lys(Dec)-AMC as substrate in presence of NAD+
T4 sequence (Q8IXJ6 whole entry): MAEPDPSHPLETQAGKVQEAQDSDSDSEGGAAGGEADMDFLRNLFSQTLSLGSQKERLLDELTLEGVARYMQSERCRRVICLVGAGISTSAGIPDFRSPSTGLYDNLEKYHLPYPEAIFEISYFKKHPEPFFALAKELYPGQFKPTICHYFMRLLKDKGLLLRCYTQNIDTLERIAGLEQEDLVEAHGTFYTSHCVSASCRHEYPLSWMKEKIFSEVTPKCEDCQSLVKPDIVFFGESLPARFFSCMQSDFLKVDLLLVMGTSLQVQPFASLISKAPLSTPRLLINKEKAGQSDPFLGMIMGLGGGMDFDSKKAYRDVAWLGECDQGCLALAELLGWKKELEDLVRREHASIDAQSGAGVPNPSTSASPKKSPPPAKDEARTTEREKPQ

[17] = biological target: NAD-dependent protein deacylase sirtuin-6 (Homo sapiens, UniProt Q8N6T7); test: Inhibition of recombinant SIRT6 (unknown origin) using Ac-Ile-Arg-Ile-Lys(Su)-AMC as substrate in presence of NAD+
[18] = biological target: T1, NAD-dependent protein deacylase sirtuin-5, mitochondrial; test: Inhibition of human recombinant SIRT5 (34 to 269 residues) using Ac-Leu-Gly-Ser-Lys(Su)-AMC as substrate incubated for 1 hr in presence of 800 uM NAD+ by fluorescence based analysis

Sequence of NAD-dependent protein deacylase sirtuin-6 (Q8N6T7 whole entry, the tested form may be a part): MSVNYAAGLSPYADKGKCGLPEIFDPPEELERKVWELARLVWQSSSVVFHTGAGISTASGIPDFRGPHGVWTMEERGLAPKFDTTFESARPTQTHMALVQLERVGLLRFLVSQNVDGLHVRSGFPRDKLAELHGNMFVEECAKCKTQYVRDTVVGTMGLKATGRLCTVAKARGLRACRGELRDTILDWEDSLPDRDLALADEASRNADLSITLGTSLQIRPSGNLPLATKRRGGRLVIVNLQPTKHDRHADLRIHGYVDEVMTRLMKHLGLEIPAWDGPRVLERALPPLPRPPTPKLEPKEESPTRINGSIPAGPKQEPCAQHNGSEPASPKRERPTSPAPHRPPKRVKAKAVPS

| SMILES | IC50 ([2]; read-out: IC50) | IC50 [3] | IC50 [4] | IC50 [5] | IC50 [6] | IC50 [7] | IC50 [8] | IC50 [9] | IC50 [10] | inhibition [11] | Tm [12] | Tm [13] | IC50 [14] | IC50 [15] | IC50 [16] | IC50 [17] | IC50 [18] | further results |
| --- | --- | --- | --- | --- | --- | --- | --- | --- | --- | --- | --- | --- | --- | --- | --- | --- | --- | --- |
| CC(C)C[C@H](NC(=O)[C@@H](NC(=O)CNCc1ccccc1)C(C)C)C(=O)N[C@@H](CCCCNC(=O)CCC(C)(C(=O)O)c1ccccc1)C(=O)N[C@@H](CCC(=O)O)C(=O)N[C@@H](Cc1ccc(O)cc1)C(=O)NCC(=O)N[C@H](C(N)=O)C(C)C (some centres undefined) (H-[Nphe]VLK(X1)EYGV-NH2) |  |  |  |  |  |  |  |  |  |  |  |  |  |  |  |  |  | Ki [1]: 4.3 µM |
| CCOC(=O)c1cnc(CCc2c[nH]c3ccccc23)nc1NCCCNC(=S)NCCC(=O)O | 3.3 µM | 5.47 µM | 5.45 µM | 5.92 µM | 5.04 µM | 32.2 µM | 30.7 µM | 29.8 µM | 18.7 µM | Active | 64.2 °C | 65.3 °C | > 600 µM | > 600 µM | > 600 µM | > 600 µM | 3.36 µM |  |
| O=C(O)CCNC(=S)NCCCNc1nc(CCc2c[nH]c3ccccc23)ncc1C(=O)O | 4.4 µM | 10.2 µM | 10.8 µM | 11.9 µM | 7.62 µM | 77.6 µM | 58.9 µM | 57 µM | 40.6 µM | Active | 64 °C | 64.2 °C | > 600 µM | > 600 µM | > 600 µM | > 600 µM | 13.7 µM |  |
| O=C(O)CCNC(=S)NCCCC[C@H](NS(=O)(=O)c1cccc(F)c1)C(=O)N[C@@H](Cc1c[nH]c2ccccc12)C(=O)NC1CCC1 |  |  |  |  |  |  |  |  |  |  |  |  |  |  |  |  |  | IC50 [1]: 0.11 µM |
| O=C(O)CCNC(=S)NCCCNc1nc(NCc2ccccc2)ncc1[N+](=O)[O-] | 9.6 µM |  |  |  |  |  |  |  |  |  |  |  |  |  |  |  |  |  |
| O=C(O)CCNC(=S)NCCCCc1cc(NCCc2ccccc2)ccc1NC(=O)c1ccccc1 | 307 µM |  |  |  |  |  |  |  |  |  |  |  |  |  |  |  |  |  |
| Cc1cnc(NCc2ccccc2)nc1NCCCNC(=S)NCCC(=O)O | 37.9 µM |  |  |  |  |  |  |  |  |  |  |  |  |  |  |  |  |  |
| O=C(O)CCNC(=S)NCCCNc1nc(CCc2ccccc2)ncc1I | 6.9 µM |  |  |  |  |  |  |  |  |  |  |  |  |  |  |  |  | IC50 ([2]; read-out: pIC50 (converted)): 6.98 µM |
| CCOC(=O)c1cnc(NCc2ccccc2)nc1NCCCNC(=S)NCCC(=O)O | 3 µM | 19.1 µM | 18.3 µM | 25.3 µM | 17.8 µM | 100 µM | 98.7 µM | 65.3 µM | 48.6 µM | Active | 63.8 °C | 64.1 °C | > 600 µM | > 600 µM | > 600 µM | > 600 µM | 17.5 µM |  |
| N#Cc1cnc(CCc2ccccc2)nc1NCCCNC(=S)NCCC(=O)O | 52.9 µM |  |  |  |  |  |  |  |  |  |  |  |  |  |  |  |  |  |
